This is an account of results in US9932331B2, “Phenyl tetrahydroisoquinoline compound substituted with heteroaryl” (TAISHO PHARMACEUTICAL CO., LTD, priority 2014, dated 2018).

Counter-ions that a name gives are not always drawn.

The target in this assay is T1, human NHE3 (Homo sapiens, UniProt P48764).
T1 sequence (P48764 26-834): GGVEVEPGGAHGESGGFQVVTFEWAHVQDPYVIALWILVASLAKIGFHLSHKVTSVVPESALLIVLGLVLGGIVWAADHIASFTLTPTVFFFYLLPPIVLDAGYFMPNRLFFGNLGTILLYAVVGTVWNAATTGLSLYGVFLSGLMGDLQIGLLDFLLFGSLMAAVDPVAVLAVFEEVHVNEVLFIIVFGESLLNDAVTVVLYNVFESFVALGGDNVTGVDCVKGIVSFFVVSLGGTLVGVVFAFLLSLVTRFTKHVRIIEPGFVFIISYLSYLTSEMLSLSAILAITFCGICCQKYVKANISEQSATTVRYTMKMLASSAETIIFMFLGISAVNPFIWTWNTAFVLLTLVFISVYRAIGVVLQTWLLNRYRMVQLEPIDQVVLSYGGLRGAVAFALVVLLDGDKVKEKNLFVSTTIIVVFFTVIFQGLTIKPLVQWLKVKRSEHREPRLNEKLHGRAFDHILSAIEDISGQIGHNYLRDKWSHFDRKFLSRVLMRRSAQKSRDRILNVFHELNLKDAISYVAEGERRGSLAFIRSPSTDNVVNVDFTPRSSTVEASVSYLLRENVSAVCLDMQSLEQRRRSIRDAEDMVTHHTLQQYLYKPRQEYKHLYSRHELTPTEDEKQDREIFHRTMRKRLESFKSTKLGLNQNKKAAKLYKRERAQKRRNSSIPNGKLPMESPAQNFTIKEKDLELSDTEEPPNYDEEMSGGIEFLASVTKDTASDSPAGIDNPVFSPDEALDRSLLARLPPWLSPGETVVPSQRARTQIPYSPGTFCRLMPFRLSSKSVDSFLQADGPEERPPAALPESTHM
Nature of the assay: NHE3 inhibition test (recovery of intracellular pH in cell line stably expressing human NHE3). Type of assay: cell-based. To be noted: OK cells deficient in endogenous NHE stably expressing human NHE3; BCECF fluorescence, initial rate of pH recovery; read-out: human NHE3 inhibitory activity IC50. Here is the method:
(1) Preparation of Cell Line Deficient in Endogenous NHE
The cell line deficient in endogenous NHE was prepared according to the method of Jacques Pouyssegur et al. (Proc. Natl. Acad. Sci. USA. 1984, Vol. 81, 4833-4837) using opossum kidney (OK) cells (ATCC).
(2) Preparation of Expression Plasmid and Cell Line Stably Expressing Human NHE3
The expression plasmid was constructed by inserting a human NHE3 (SLC9A3, Accession No. NM_004174) cDNA sequence (GeneCopoeia, Inc.) into a pcDNA3.2/V5-DEST vector (Life Technologies Corp.).
The OK cells deficient in endogenous NHE were transfected with the constructed human NHE3 expression plasmid to prepare stably expressing cells. The transfection was carried out by electroporation using a Nucleofector 2b device (Lonza Group Ltd.). A stably expressing cell line was selected in medium supplemented with 500 μg/mL Geneticin (Life Technologies Corp.) and isolated.
NHE3 activity measurement method using cell: The activity was determined by using the NHE3-mediated recovery of intracellular pH occurring after intracellular acidification, as an index. The intracellular pH was measured by a partial modification of the pH-sensitive fluorescent indicator method reported by Tsien et al. (Proc. Natl. Acad. Sci. USA., 1984, 81, 7436-7440).
The cell line stably expressing human NHE3 was inoculated on a poly-D-lysine-coated 96-well plate (Greiner Bio-one) and cultured overnight. […] Then, Hank's balanced salt buffer solution containing 0.25 μM BCECF-AM (Dojindo Laboratories) was added to the cells, which were then incubated at 37° C. for 30 minutes. […] The cells thus incubated in the NH4Cl buffer solution were washed with NH4Cl-free buffer solution (133.8 mM choline chloride, […], 5 mM glucose, 4.7 mM KCl, 1.25 mM CaCl2, 1.25 mM MgCl2, 0.97 mM K2HPO4, 0.23 mM KH2PO4, pH 7.4) to decrease the intracellular pH. After the washing step, 70 μL of a test compound solution prepared with the NH4Cl-free buffer solution was added to the cells, and 70 iμL of sodium ion-containing buffer solution (133.8 mM NaCl, 10 mM HEPES, 5 mM glucose, 4.7 mM KCl, 1.25 mM CaCl2, 1.25 mM MgCl2, 0.97 mM Na2HPO4, 0.23 mM NaH2PO4, pH 7.4) was added thereto in a measurement system FDSS6000 (Hamamatsu Photonics K.K.) to start the recovery of pH. The recovery of intracellular pH was monitored using BCECF fluorescence (excitation wavelength: 480 nm, fluorescence wavelength: 520 to 560 nm), and the initial rate of the pH recovery was plotted. The recovery of pH without test compound was defined as the maximum recovery, and the test compound concentration necessary to inhibit 50% of the maximum recovery was calculated as an IC50 value.
Usually IC50 stands for the concentration that inhibits the measured activity by half. `CN1Cc2c(Cl)cc(Cl)cc2[C@H](c2cccc(-c3nn[nH]n3)c2)C1` [Example 2-1, (4S)-6,8-dichloro-2-methyl-4-[3-(2H-tetrazol-5-yl)phenyl]-1,2,3,4-tetrahydroisoquinoline]: the concentration for half-maximal inhibition (IC50) turned out to be 89.3 nM. For `Cc1nnc(-c2cccc([C@@H]3CN(C)Cc4c(Cl)cc(Cl)cc43)c2)[nH]1` [Example 3-1, (4S)-6,8-Dichloro-2-methyl-4-[3-(3-methyl-1H-1,2,4-triazol-5-yl)phenyl]-1,2,3,4-tetrahydroisoquinoline hydrochloride], the IC50 came to 49.1 nM.

As for `Cc1nc(-c2cccc([C@@H]3CN(C)Cc4c(Cl)cc(Cl)cc43)c2)no1` [Example 4-1, (4S)-6,8-Dichloro-2-methyl-4-[3-(5-methyl-1,2,4-oxadiazol-3-yl)phenyl]-1,2,3,4-tetrahydroisoquinoline hydrochloride], the IC50 was determined as 554 nM. Turning to `Cc1cc(-c2cccc([C@@H]3CN(C)Cc4c(Cl)cc(Cl)cc43)c2)on1` [Example 5-1, (4S)-6,8-Dichloro-2-methyl-4-[3-(3-methyl-1,2-oxazol-5-yl)phenyl]-1,2,3,4-tetrahydroisoquinoline hydrochloride], the half-maximal inhibitory concentration (IC50) is 760 nM. To `CN1Cc2c(Cl)cc(Cl)cc2[C@H](c2cccc(-c3cn(CCOCCOCCNC(=O)NCCCCNC(=O)NCCOCCOCCn4cc(-c5cccc([C@@H]6CN(C)Cc7c(Cl)cc(Cl)cc76)c5)nn4)nn3)c2)C1` [Example 6-1, 1,1′-Butane-1,4-diylbis[3-(2-{2-[2-(4-{3-[(4S)-6,8-dichloro-2-methyl-1,2,3,4-tetrahydroisoquinolin-4-yl]phenyl}-1H-1,2,3-triazol-1-yl)ethoxy]ethoxy}ethyl)urea]] belongs 2.4 nM; to `CN1Cc2c(Cl)cc(Cl)cc2[C@H](c2cccc(-c3cn(CCOCCOCCNC(=O)CCC(=O)NCCOCCOCCn4cc(-c5cccc([C@@H]6CN(C)Cc7c(Cl)cc(Cl)cc76)c5)nn4)nn3)c2)C1` [Example 6-3, N,N′-Bis(2-{2-[2-(4-{3-[(4S)-6,8-dichloro-2-methyl-1,2,3,4-tetrahydroisoquinolin-4-yl]phenyl}-1H-1,2,3-triazol-1-yl)ethoxy]ethoxy}ethyl)butanediamide hydrochloride], 301 nM.

For `CN1Cc2c(Cl)cc(Cl)cc2[C@H](c2cccc(-c3cn(CCOCCOCCNC(=O)[C@H](O)[C@@H](O)C(=O)NCCOCCOCCn4cc(-c5cccc([C@@H]6CN(C)Cc7c(Cl)cc(Cl)cc76)c5)nn4)nn3)c2)C1` [Example 6-6, (2R,3R)—N,N′-Bis(2-{2-[2-(4-{3-[(4S)-6,8-dichloro-2-methyl-1,2,3,4-tetrahydroisoquinolin-4-yl]phenyl}-1H-1,2,3-triazol-1-yl)ethoxy]ethoxy}ethyl)-2,3-dihydroxybutanediamide hydrochloride], the IC50 stood at 75 nM. For `CN1Cc2c(Cl)cc(Cl)cc2[C@H](c2cccc(-c3cn(CCOCCOCCNC(=O)[C@@H](O)[C@H](O)[C@H](O)[C@@H](O)C(=O)NCCOCCOCCn4cc(-c5cccc([C@@H]6CN(C)Cc7c(Cl)cc(Cl)cc76)c5)nn4)nn3)c2)C1` [Example 6-7, (2R,3S,4R,5S)—N,N′-Bis(2-{2-[2-(4-{3-[(4S)-6,8-dichloro-2-methyl-1,2,3,4-tetrahydroisoquinolin-4-yl]phenyl}-1H-1,2,3-triazol-1-yl)ethoxy]ethoxy}ethyl)-2,3,4,5-tetrahydroxyhexanediamide hydrochloride], the IC50 amounted to 1.1 nM. For `CN1Cc2c(Cl)cc(Cl)cc2[C@H](c2cccc(-c3cn(CCOCCOCCOCCNC(=O)NCCNC(=O)NCCNC(=O)NCCOCCOCCOCCn4cc(-c5cccc([C@@H]6CN(C)Cc7c(Cl)cc(Cl)cc76)c5)nn4)nn3)c2)C1` [Example 6-13, 1,1′-[Carbonylbis(iminoethane-2,1-diyl)]bis {3-[2-(2-{2-[2-(4-{3-[(4S)-6,8-dichloro-2-methyl-1,2,3,4-tetrahydroisoquinolin-4-yl]phenyl}-1H-1,2,3-triazol-1-yl)ethoxy]ethoxy}ethoxy)ethyl]urea}hydrochloride] the value was 2.1 nM; for `CN1Cc2c(Cl)cc(Cl)cc2[C@H](c2cccc(-c3cn(CCOCCOCCOCCOCCNC(=O)NCCCCNC(=O)NCCOCCOCCOCCOCCn4cc(-c5cccc([C@@H]6CN(C)Cc7c(Cl)cc(Cl)cc76)c5)nn4)nn3)c2)C1` [Example 7-1, 1,1′-Butane-1,4-diylbis {3-[14-(4-{3-[(4S)-6,8-dichloro-2-methyl-1,2,3,4-tetrahydroisoquinolin-4-yl]phenyl}-1H-1,2,3-triazol-1-yl)-3,6,9,12-tetraoxatetradec-1-yl]urea}hydrochloride], 2.2 nM; for `CN1Cc2c(Cl)cc(Cl)cc2[C@H](c2cccc(-c3cnc(NCCOCCOCCNC(=O)NCCCCNC(=O)NCCOCCOCCNc4ncc(-c5cccc([C@@H]6CN(C)Cc7c(Cl)cc(Cl)cc76)c5)cn4)nc3)c2)C1` [Example 7-3, 1,1′-Butane-1,4-diylbis {3-[2-(2-{2-[(5-{3-[(4S)-6,8-dichloro-2-methyl-1,2,3,4-tetrahydroisoquinolin-4-yl]phenyl}pyrimidin-2-yl)amino]ethoxy}ethoxy)ethyl]urea}hydrochloride], 11 nM. Regarding `CN1Cc2c(Cl)cc(Cl)cc2[C@H](c2cccc(-c3ccc(NCCOCCOCCNC(=O)NCCCCNC(=O)NCCOCCOCCNc4ccc(-c5cccc([C@@H]6CN(C)Cc7c(Cl)cc(Cl)cc76)c5)cn4)nc3)c2)C1` [Example 7-7, 1,1′-Butane-1,4-diylbis {3-[2-(2-{2-[(5-{3-[(4S)-6,8-dichloro-2-methyl-1,2,3,4-tetrahydroisoquinolin-4-yl]phenyl}pyridin-2-yl)amino]ethoxy}ethoxy)ethyl]urea}], the IC50 was found to be 6.8 nM. Take `CN1Cc2c(Cl)cc(Cl)cc2[C@H](c2cccc(-c3ccc(NCCOCCOCCNC(=O)Nc4ccc(NC(=O)NCCOCCOCCNc5ccc(-c6cccc([C@@H]7CN(C)Cc8c(Cl)cc(Cl)cc87)c6)cn5)cc4)nc3)c2)C1` [Example 7-8, 1,1′-Benzene-1,4-diylbis{3-[2-(2-{2-[(5-{3-[(4S)-6,8-dichloro-2-methyl-1,2,3,4-tetrahydroisoquinolin-4-yl]phenyl}pyridin-2-yl)amino]ethoxy}ethoxy)ethyl]urea}]: the IC50 is 1080 nM. Take `CN1Cc2c(Cl)cc(Cl)cc2[C@H](c2cccc(-c3cc(OCCOCCOCCNC(=O)Nc4ccc(NC(=O)NCCOCCOCCOc5cc(-c6cccc([C@@H]7CN(C)Cc8c(Cl)cc(Cl)cc87)c6)ncn5)cc4)ncn3)c2)C1` [Example 7-11, 1,1′-Benzene-1,4-diylbis {3-[2-(2-(2-{2-[(6-{3-[(4S)-6,8-dichloro-2-methyl-1,2,3,4-tetrahydroisoquinolin-4-yl]phenyl}pyrimidin-4-yl)oxy]ethoxy}ethoxy)ethyl]urea} trifluoroacetate]: the IC50 worked out at 33.5 nM.
